Values joined by “and” are separate entries in the source; they are usually repeats but may differ in a detail not shown here. Identical values can stand only once.
Experiments:
[1] = test system: Nurr1; parameters: method as in PMID 33289551; conditions: independent evaluation; cited from earlier work
[2] = target: T1, human Nurr1 (hinge region and ligand binding domain) (Homo sapiens, UniProt P43354); test: Gal4-Nurr1 hybrid reporter gene assay; type: cell-based; conditions: mean ± SD, n ≥ 3; for EC50: Gal4-Nurr1 hybrid reporter, HEK293T, read-out: EC50(Nurr1); for max. activation: maximum effect vs. 0.1% DMSO control
T1 construct: expressed in transfected cells; host or cells: HEK293T
Procedure: Nurr1 modulation was determined in a Gal4 hybrid reporter gene assay in HEK293T cells (German Collection of Microorganisms and Cell Culture GmbH, DSMZ) using pFR-Luc (Stratagene, La Jolla, CA, USA; reporter), pRL-SV40 (Promega, Madison, WI, USA; internal control) and pFA-CMV-hNurr1-LBD[14], coding for the hinge region and ligand binding domain of the canonical isoform of human Nurr1. […] After 24 h, the medium was changed to Opti-MEM without supplements, and cells were transiently transfected using Lipofectamine LTX reagent (Invitrogen, Carlsbad, CA, USA) according to the manufacturer’s protocol. Five hours after transfection, cells were incubated with the test compounds in Opti-MEM supplemented with penicillin (100 U/mL), streptomycin (100 μg/mL), and 0.1% DMSO for 16 h before luciferase activity was measured using the Dual-Glo Luciferase Assay System (Promega) according to the manufacturer’s protocol on a Tecan Spark luminometer (Tecan Deutschland GmbH, Crailsheim, Germany). Firefly luminescence was divided by Renilla luminescence and multiplied by 1000 resulting in relative light units (RLU) to normalize for transfection efficiency and cell growth. Fold activation was obtained by dividing the mean RLU of the test compound by the mean RLU of the untreated control. All samples were tested in at least three biologically independent experiments in duplicates. For dose-response curve fitting and calculation of EC50 values, the equation “[Agonist] vs. response -- Variable slope (four parameters)” was used in GraphPad Prism (version 7.00, GraphPad Software, La Jolla, CA, USA). Selectivity profiling was performed with identical procedures using pFA-CMV-Nur77-LBD[14], pFA-CMV-NOR-1-LBD[14], pFA-CMV-THRα-LBD[51], pFA-CMV-RARα-LBD[52], pFA-CMV-PPARα-LBD[53], pFA-CMV-PPARγ-LBD[53], pFA-CMV-PPARδ-LBD[53], pFA-CMV-LXRα-LBD[54], pFA-CMV-FXR-LBD[55] and pFA-CMV-hRXRα-LBD[56].

[3] = Microsomal stability; type: in vitro ADME, rat; conditions: male, Sprague-Dawley, pH 7.4; rat liver microsomes, 10 µM, LCMS
Procedure: To determine microsomal stability, test compounds (10 μM) were incubated in 100 mM potassium phosphate buffer at pH 7.4 (total volume of 100 µL) containing 0.5 mg/mL male rat liver microsomes (Sprague-Dawley, no. M9066, Merck KGaA, Darmstadt) and 1 mM NADPH for 0, 15, 30, or 60 min. At the end of the incubation time, microsomal activity was terminated by the addition of 500 µL MeCN and subsequent centrifugation at 1700 g for 5 min. A reaction mixture containing heat-inactivated microsomes (95 °C, 10 min) was prepared as a control for each compound. 5 µL supernatant of each sample was analyzed and the remaining concentrations of the respective test compounds at each time point were determined by LC-MS/MS on an API-3200-QTrap (Sciex) with an Agilent Technologies 1100 series setup including a binary pump (G1311A), a degasser (G1322A), and a Shimadzu SIL 20 A HT autosampler under the control of Analyst 1.6 (Sciex). A XBridge BEH C18 (3.5 µm, 150 mm×3 mm, Waters, protected with a 0.5 µm frit) stationary phase was used in combination with a gradient method starting with 0.1% formic acid in water (A) and MeCN (B) as mobile phase (A:B = 80:20) for 6 min going to A: B = 50:50 after 8 min. 5 µL of supernatant diluted in mobile phase starting conditions was loaded onto the column, separated at a flow rate of 400 µL/min, and detected and quantified per Area of MRM (multiple reaction monitoring) with the following transitions: m/z 381.797/145.000 (34); m/z 395.125/158.200 (36); m/z 409.822/131.000 (41); m/z 407.838/171.100 (42).

[4] = Parallel artificial membrane permeability assay (PAMPA); type: in vitro ADME; conditions: 500 µM donor, pH 7.4, 18 h
Procedure: Passive lipid membrane diffusion of test compounds was determined using Merck Millipore MultiScreen Filter Plates (0.45 μm pore diameter, hydrophobic PVDF). The filter inserts were coated with 1% L-α-phosphatidylcholine (Fluka Analytical) in n-dodecan. The test compounds were then added to the donor compartment at a final concentration of 500 µM in a phosphate buffer pH 7.4 containing 5% DMSO with a total volume of 150 µL. The acceptor compartment was filled with 300 µL PBS containing 5% DMSO. Additionally, three equilibrium samples were prepared by directly adding the donor solution to the acceptor compartment for the calculation of log Pe values. The filter plates were incubated for 18 h before the test compound concentrations in the acceptor compartments and in the equilibrium, samples were determined by UV absorbance at 320 nm (34), 360 nm (36), 310 nm (41), or 315 nm (42) with external calibration in a 96 well quartz plate on a SpectraMax M2e microplate reader (Molecular Devices). logPe values were calculated according to the formula published by Sugano and colleagues.

[5] = test system: HBEC-5i human brain endothelial cells; test: In vitro blood-brain-barrier model; type: in vitro ADME; conditions: HBEC-5i trans-well, 10 µM, 60 min
Procedure: Permeation of test compounds through a human brain endothelial cell barrier was evaluated using the Corning Costar 3470 Transwell Plate system (0.4 μm pore diameter with 6.5 mm inserts) and HBEC-5i cells (ATCC, CRL-3245). Filter inserts were coated one day before seeding with 50 μL 0.01% rat-tail collagen type I ([…], Sigma-Aldrich) in PBS. 60,000 HBEC-5i cells in 100 μL HBEC-5i-Medium (DMEM/F12 with 10% FCS and 40 μg/mL ECGS) were seeded after aspiration of the coating-supernatant in each insert with 600 μL HBEC-5i-Medium in each receiver well. After 24 h incubation at 37 °C with 5% CO2, the medium was exchanged to 600 μL T98G cell supernatant in receiver wells and 100 μL fresh HBEC-5i-Medium in inserts. The medium exchange was repeated every second day. On day 7 after seeding, the medium in the receiver wells was replaced by 600 μL Hank's balanced salt solution (HBSS) containing 10 mM HEPES and 0.1% DMSO and 100 μL test compound mixtures (antipyrine and test compound; each at 10 μM) in HBSS containing 10 mM HEPES and 0.1% DMSO were added to inserts. After 60 min incubation, 100 μL samples were taken from the receiver wells and diluted in 400 μL (75%/25% A/B; A=Formic acid 0.1% in water; B = Acetonitrile). Test compound concentrations in the samples were determined by LC-MS/MS on an API-3200-QTrap (Sciex) equipped with an Agilent Technologies 1100 series setup including a binary pump […]), and a Shimadzu […] autosampler under the control of Analyst 1.6 (Sciex). […] B) for 6 min going to (50%:50%) after 8 min. 5 μL of aspirated supernatant diluted in mobile phase starting conditions was loaded onto the column, separated at a flow rate of 400 μL/min, and quantified per Area of MRM (multiple reaction monitoring).

T1 sequence (P43354 360-595 limits assumed): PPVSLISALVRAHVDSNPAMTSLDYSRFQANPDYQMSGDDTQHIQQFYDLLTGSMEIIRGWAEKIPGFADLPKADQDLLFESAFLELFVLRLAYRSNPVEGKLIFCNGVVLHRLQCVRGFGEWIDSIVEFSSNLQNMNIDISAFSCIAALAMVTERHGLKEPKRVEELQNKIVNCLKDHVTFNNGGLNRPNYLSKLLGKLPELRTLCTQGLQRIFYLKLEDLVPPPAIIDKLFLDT

| Structure (SMILES) | binding to Nurr1 [1] | EC50 [2] [nM] | max. activation [2] [fold] | half-life at 10 µM [3] [min] | logPe (PAMPA) [4] | logPe (BBB) [5] |
| --- | --- | --- | --- | --- | --- | --- |
| O=C(Nc1ccccc1)c1cn2cc(-c3ccccn3)ccc2n1 [SR24237] | no evidence for binding |  |  |  |  |  |
| COc1ccc(-c2ccc(C(=O)Nc3c(C)nc4c(Cl)cccn34)o2)cc1 [Compound 34] |  | 160 ± 60 | 1.7 ± 0.1 | 18 ± 2 | -5.478 and -5.491 and -5.489 and -5.4212 and -5.4577 |  |
| Cc1nc2c(Cl)cccn2c1NC(=O)c1ccc(-c2ccc(OC3CC3)cc2)o1 [Compound 42, N-(8-Chloro-2-methylimidazo[1,2-a]pyridin-3-yl)-5-(4-cyclopropoxyphenyl)furan-2-carboxamide] |  | 120 ± 60 | 1.5 ± 0.2 | 78 ± 7 | -5.857 and -5.822 and -5.789 and -5.846 and -5.806 | -5.049 and -5.059 and -4.946 and -5.046 and -4.96 and -4.965 |
| Cc1cc(=O)n(-c2ccccc2)n1C [antipyrine, reference compound] |  |  |  |  |  | -4.6402 and -4.7739 and -4.62 and -4.578 and -4.647 |
| Cc1nc2c(Cl)cccn2c1NC(=O)c1ccc(-c2ccc(OC(C)C)cc2)o1 [Compound 41] |  | 120 ± 30 | 2.1 ± 0.2 | 42 ± 5 | -5.684 and -5.708 and -5.674 and -5.7032 and -5.723 and -5.7183 |  |
